Columns and labels:
[1] = cited from earlier work
blood flow = conditions: […] gel, topical, cited from earlier work
pain threshold = conditions: in vivo; cited from earlier work
[2] = Solubility of nonivamide / capsaicin in methyl salicylate
[3] = Diclofenac sodium solubility studies in solvents; format: physicochemical; conditions: for DICLOFENAC SODIUM SOLUBILITY: 2 wt. % Diclofenac Sodium
Method: All solubility samples were prepared in 20 gram sample size. The ingredients of each test samples were weighed to the nearest 0.01 grams. The 20 gram samples were mixed in 50 cc Pyrex glass beakers.
All solubility studies were performed with “Diclofenac Sodium Salt” obtained from Sigma Aldrich, St. Louis, Mo. (CAS #15307-79-6; Sigma-Aldrich Catalog No. D6899; Lot # BCBB7312; M.P. 275-277° C.)
The ingredients were thoroughly mixed at ambient temperatures ranging from 75° F. to 80° F.

[4] = Miscibility of diclofenac sodium and capsaicin liquid solutions
Method: The table below includes the compositions of 7 completely miscible and transparent diclofenac sodium and capsaicin liquid solutions that were prepared.
It is evident that alcohols (ethyl alcohol and/or ethoxydiglycol) are required to effect the solubility of Diclofenac salts within the oil based ingredients of the capsaicin vehicles.

nasal airway resistance = conditions: intranasal use, cited from earlier work

CC1CCC(C(C)C)C(O)C1 (centres unmarked) [Menthol]
Oil Soluble [1]: soluble | blood flow remains reduced (blood flow; 10 minutes after application): ~20% | reduction of blood flow (blood flow; within 60 seconds of application): 35%

COC(=O)c1ccccc1O [Methyl Salicylate, Methyl salicylate]
Aqueous Soluble. [1]: sparingly

CC1CC[C@H](C(C)C)[C@@H](O)C1 (some centres unmarked) [(d)-menthol]
analgesic effect (pain threshold) (pain threshold): completely devoid of any analgesic effect

CCCCCCCCC(=O)NCc1ccc(O)c(OC)c1 [Nonivamide, vanillylamide of n-nonanoic acid]
solubility levels in methyl salicylate [2]: exceeded 25 wt. % | precipitation from 30 wt. % solution in methyl salicylate ([2]; after 2 weeks of storage at 5° C.): no evidence of any precipitation | precipitation from 30 wt. % solution in methyl salicylate ([2]; powder added at ambient temperature, cooled to −10° C. for 10 hours): did not result in the precipitation

O=C([O-])Cc1ccccc1Nc1c(Cl)cccc1Cl.[Na+] [Diclofenac Sodium]
DICLOFENAC SODIUM SOLUBILITY ([3]; Sample 1: 98 wt. % Methyl Salicylate, ambient 75-80° F.): Sparingly Soluble/Insoluble | DICLOFENAC SODIUM SOLUBILITY ([3]; Sample 2: 50 wt. % Methyl Salicylate, 15 wt. % Menthol, 11 wt. % Camphor, 1.5 wt. % Phenol, 20.5 wt. % Macadamia Nut Oil): Sparingly Soluble/Insoluble | DICLOFENAC SODIUM SOLUBILITY ([3]; Sample 3: 98 wt. % Ethyl Alcohol): ^(10)Completely Soluble | DICLOFENAC SODIUM SOLUBILITY ([3]; Sample 4: 98 wt. % Transcutol): ^(10)Completely Soluble | DICLOFENAC SODIUM SOLUBILITY ([3]; Sample 5: 88 wt. % Methyl Salicylate, 10 wt. % Ethyl Alcohol): ^(10)Completely Soluble | DICLOFENAC SODIUM SOLUBILITY ([3]; Sample 6: 50 wt. % Methyl Salicylate, 15 wt. % Menthol, 11 wt. % Camphor, 1.5 wt. % Phenol, 18.5 wt. % Macadamia Nut Oil): Sparingly Soluble/Insoluble | DICLOFENAC SODIUM SOLUBILITY ([3]; Sample 7: 50 wt. % Methyl Salicylate, 15 wt. % Menthol, 11 wt. % Camphor, 1.5 wt. % Phenol, 18.5 wt. % Ethyl Alcohol, 2 wt. % Capsaicin): ^(10)Completely Soluble | DICLOFENAC SODIUM SOLUBILITY ([3]; Sample 8: 50 wt. % Methyl Salicylate, 15 wt. % Menthol, 11 wt. % Camphor, 1.5 wt. % Phenol, 10.5 wt. % Ethyl Alcohol, 2 wt. % Capsaicin): ^(10)Completely Soluble | effect of heating to ˜35° C. on solubility ([3]; mixtures where solubility was sparingly soluble to insoluble): did not have a significant impact | concentration with complete solubility/miscibility in the ethyl alcohol capsaicin vehicle [4]: < 2 wt. %

CCOC(=O)c1ccc(N)cc1 [Benzocaine]
Aqueous Soluble. [1]: sparingly | Oil Soluble [1]: Soluble

CCO [Ethyl Alcohol]
Aqueous Soluble. [1]: miscible | Oil Soluble [1]: soluble

CC12CCC(CC1=O)C2(C)C (centres unmarked) [Camphor]
Oil Soluble [1]: soluble

CC(C)[C@@H]1CC[C@@H](C)C[C@H]1O [(l)-menthol]
analgesic effect (pain threshold) (pain threshold): able to increase pain threshold

CCCNC(C)C(=O)Nc1ccccc1C (centres unmarked) [Prilocaine]
Aqueous Soluble. [1]: sparingly | Oil Soluble [1]: soluble

COc1cc(CNC(=O)CCCC/C=C/C(C)C)ccc1O [Capsaicin, N-(4-hydroxy-3-methoxybenzyl)-8-methylnon-trans-6-enamide]
Aqueous Soluble. [1]: insoluble | Oil Soluble [1]: soluble | solubility in alcohol, methyl salicylate, ether, benzene and chloroform [1]: freely soluble | solubility in water [1]: practically insoluble | reduction in nasal airway resistance (nasal airway resistance): 60% | effectiveness continued for (nasal airway resistance; in most patients): more than 4 months

Source: patent US8889659B2, “Pain relief compositions, manufacture and uses” (API Genesis, LLC, priority 2011, dated 2014)
